From paper doi:10.1101/2024.07.10.602890, “H105A peptide eye drops promote photoreceptor survival in murine and human models of retinal degeneration” (bioRxiv, 2024)
Ends that are not written are not given here.

Tested on: rd10 and rd10/Serpinf1−/− mice
Assay: Electroretinography (ERG) a-wave and b-wave after peptide eye drops
Type: in vivo, mouse
Conditions: for ERG a- and b-wave responses relative to vehicle-treated eyes: dark-adapted rd10 and rd10/Serpinf1−/− mice at P21, daily eye drops, n = 8
From the text: Fig. 5: Effect of daily eyedrops of PEDF peptides on ERG a-wave and b-wave retinal function (A and B) Representative ERG waveforms for rd10 (A) and rd10/Serpinf1^−/− (B) mice at P21 in response to a light flash (1 cd.s/m^2). Amplitude (y-axis) is plotted against time in milliseconds (ms, x-axis). Treatments are indicated to the right of each plot and are color coded, with control wild type C57Bl/6J mice without peptide treatment shown in blue. A-wave and b-wave are indicated by arrows. (C and D) Photoreceptor a-wave amplitudes. Averages of photoreceptor a-wave amplitudes for rd10 (C) and rd10/Serpinf1^−/− (D) mice as a function of light intensity (cd/s.m^2, x-axis). Responses of animals treated with 17-mer are shown in green, H105A in black, and vehicle (HBSS) in red. Wildtype responses are shown in blue. (E and F) Bipolar cell b-wave amplitudes. Averages of bipolar cell b-wave amplitudes for rd10 (E) and rd10/Serpinf1^−/− (F) mice as a function of light intensity (cd/s.m^2, x-axis), with treatments indicated as in panels (C) and (D). The number of mice evaluated for the data shown in Panels C-F were n = 8 for each rd10, rd10/Serpinf1^−/− and wild type. Each data point represents the average ± SD of each genotype, analyzed by unpaired t-test. Statistical significance between H105A and vehicle is indicated by ##p < 0.01, ###p < 0.001, ####p < 0.0001, and between H105A and 17-mer by **p < 0.01, ***p < 0.001, ****p < 0.0001.
Electroretinogram (ERG) for rd10 and rd10/Serpinf1^−/− mice were recorded in both eyes of each animal using an Espion E2 system with ColorDome (Diagnosys LLC) with a heated surface and mice were dark-adapted overnight as previously described ([29]). Mice were placed on the heated surface and electrodes were placed in the mouth and a subdermal platinum needle electrode was placed in the back of the mouse to serve as ground. Responses were elicited with increasing light impulses with intensity from 0.0001 to 10 cd-seconds per meter squared (cd.s/m^2). Amplitudes for a-wave were measured from stimulus to the trough of the a-wave and b-wave amplitudes were measured from a-wave to b-wave trough or peak. The values from the a and b waves for both eyes were exported to Microsoft Excel to obtained amplitude values for each mouse.
Figure S2. Effects of extending the timeline or administering eye drops of 17-mer[H105A] peptide every other day in rd10 mic e.
Eye drops of H105A peptide solution were administered to r d1 0 mice either daily (Fig. S2A) or every other day (Fi g. S 2D). A total of 5 µl of a solution containing H105A peptide at 1 mg/ml in HBSS were applied as eye drops. The vehicle HBSS was added as eye drops in the contralateral eyes. When eye […]
intensity light at P25 (Fig. S2C). When eye drops of H105A were added every other day, a rescue in the ONL thickness in r d10 mice compared to vehicle was also observed (Fi g. S 2E), with an improvement in a- […]
efficacy of peptide H105A eye drops either daily or every other day in an extended timeline to stabilize photoreceptor morphology and light response function loss in r d10 mice, however, these were less efficacious than daily H105A peptide eye drops. […]
(C) ERG of r d1 0 mice at P25 and treated as in Fi g. […] For ERG data shown, the number of mice evaluated were n =5 for rd10 and each data point corresponds to the average ± SD of each genotype by unpaired t-test. *p < 0.05, **p < 0.01, * ** p < 0 .001 , ****p < 0.0001. […]

Sequence | ERG a- and b-wave responses relative to vehicle-treated eyes | ERG a-wave (rd10 mice, eye drops every other day P15 until P23, ERG at P25, n = 5)
QRTESIIARALYYDLIS [H105A] | protected visual function | improvement
QRTESIIHRALYYDLIS [17-mer] | protected visual function | –
